Laboratory results reported in patent US5296494A, “Pyrrolidine compounds having thromboxane A2 receptor antagonistic activity and thromboxane A2 synthase inhibiting activity” (Adir et Compagnie, priority 1991, dated 1994).
Counter-ions that a name gives are not always drawn.

Assays:
[1] = test system: platelet aggregation response induced by U46619 (TXA2 receptor agonist); assay: Platelet aggregation: inhibition of U46619-induced aggregation of rabbit platelet-rich plasma; format: cell-based; conditions: Oryctolagus cuniculus, rabbit PRP, 37° C., antagonist 3 min before U46619 (1.2 μM), read-out: IC50, concentration inducing 50% inhibition of the aggregation response induced by U46619
Protocol: Rabbits (2-3 kg) are anesthetized with pentobarbital sodium (30 mg/kg i.v.). After cannulation of the left carotid artery, blood is withdrawn onto sodium citrate (0.109M) (1 vol. of citrate per 9 vol. of blood).
Platelet-rich plasma (PRP) is obtained by centrifugation (20° C.) at 250 g for 20 minutes, and platelet- poor plasma (PPP) by centrifugation at 1000 g (10 min). The number of platelets (PL) in the PRP is adjusted to 300-350,000 PL/mm^3 by dilution with autologous PPP. The PRP is stored at the temperature of the room until the time of the test, and is used within 4 hours following withdrawal.
Platelet aggregation is carried out at 37° C. in siliconed glass tubes using an aggregometer. The PRP and PL are stirred at 1000 rpm (revolutions per minute). In order to study the activity of thromboxane antagonists, the PRP is incubated for 1 min at 37° C., and the antagonist is then added for a period of 3 min before addition of the agonist U46619 (1.2 μM). The final volume in the cell is then 250 μl. The intensity of platelet aggregation is established by taking the maximum amplitude of the aggregation plots and is expressed as a percentage light transmission (% T). The activity of the antagonists is expressed as IC50, that is to say the concentration of the substance which induces a 50% inhibition of the aggregation response induced by U46619.

guinea pig trachea = biological target: T1, guinea pig trachea (Cavia porcellus, UniProt A0A286Y4I8); assay: Determination of the pA2 values on guinea pig trachea (U46619-induced contraction); format: cell-based; conditions: isolated guinea pig trachea rings, 37° C., agonist U46619, antagonist contact 20 minutes
T1 construct: the trachea is rapidly removed and then cut into two-cartilage rings; from tissue; host or cells: guinea pig trachea, two-cartilage rings (isolated organ)
T1 sequence (A0A286Y4I8 1-347): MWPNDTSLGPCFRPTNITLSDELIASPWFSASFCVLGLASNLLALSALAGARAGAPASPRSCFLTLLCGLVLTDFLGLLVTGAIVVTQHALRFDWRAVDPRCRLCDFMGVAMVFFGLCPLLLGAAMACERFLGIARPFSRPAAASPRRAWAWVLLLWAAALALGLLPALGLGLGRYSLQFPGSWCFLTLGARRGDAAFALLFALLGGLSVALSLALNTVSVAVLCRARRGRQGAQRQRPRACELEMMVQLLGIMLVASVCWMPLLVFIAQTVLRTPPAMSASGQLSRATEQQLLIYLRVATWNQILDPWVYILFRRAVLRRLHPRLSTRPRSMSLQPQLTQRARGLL
Protocol: Determination of the pA2 values on guinea pig trachea
Male albino guinea pigs weighing 400-500 grams were sacrificed by a blow to the back of the neck and by cervical elongation. The throat is opened and the trachea is rapidly removed and then cut into two-cartilage rings. These rings are mounted between two hooks in cells thermostated at 37° C. containing physiological fluid (composition in mM:NaCl 118; NaHCO3 25; glucose 10; KCl 4.7; CaCl2 1.25; MgSO4 1.19; KH2 PO4 1.14).
A 95% O2 /5% CO2 mixture is bubbled through the physiological solution. The lower hook constitutes the fixed point while the upper hook is connected to an isometric strength gage. The tissues are placed under a baseline tension of 3.5 grams. The test pharmacological substances are prepared immediately before use. The drugs are solubilized in water or in dimethyl sulfoxide.
After mounting, the preparations are left standing for 90 minutes, rinses being performed every 30 minutes. After readjustment of the baseline tension, a contraction produced by a single dose of agonist (U46619; 10^-5 M) is produced in order to make the following contractions consist. After washing and return to the baseline, a first effect/concentration curve is established by adding cumulative doses of U46619 (10^-9 M to 10^-5 M, with semi-log spacing between the doses). This first experiment enables the "control" 50% effective concentration (EC50) to be calculated.
This EC50 is routinely calculated in the following manner: the tension values are first converted to percentages relative to the maximum effect, these percentages then being plotted on a graph with the percentages as ordinates and the log (concentration) values as abscissae. A linear regression is then carried out on the points lying between 10% and 90% (which corresponds to the linear portion of the sigmoid curve). The concentration corresponding to half the maximum effect (50%) may be readily calculated using the parameters of the linear plot.
After washing and return to the baseline, the organ is brought into contact with the antagonist ([…]) for 20 minutes. A second effect/concentration curve is then established in the presence of the antagonist, and the "treated" EC50 can then be calculated. All the elements enabling the pA2 (competitive antagonism) or pD2 (non-competitive antagonism) to be calculated are thereby obtained.
The pA2 (which represents the negative logarithm of the antagonist concentration in the presence of which twice as much agonist is required in order to obtain the same effect) is determined by plotting on a graph the values of log ((L/1)-1) with respect to log (antagonist concentration), where L=effect in presence of antagonist and 1=control effect.

[2] = test system: thromboxane receptor (increase in tracheal pressure caused by U46619); assay: IC50 on tracheal pressure in guinea pigs (U46619-induced bronchoconstriction); format: in vivo, guinea pig; conditions: anesthetized guinea pigs, antagonist injected 5 minutes before U46619 (2 μg/kg i.v.); for ED50: Cavia porcellus, iv, 5 min, read-out: IC50, dose of antagonist that inhibits by 50% the increase in tracheal pressure caused by U46619
Description: IC50 on tracheal pressure in guinea pigs
Male albino guinea pigs (350-400 g) subjected to an 18-hour water diet are anesthetized with ethyl carbamate (1.25 g/kg i.p.). A catheter is introduced into the carotid artery in order to measure the arterial blood pressure by means of a pressure cell. A second catheter is introduced into the jugular vein and is used to inject the pharmacological substances. The trachea is cannulated and the guinea pig is placed in assisted respiration by means of a respirator. The animal's temperature is maintained at 37° C. using a thermostated blanket. A needle pushed into the tracheal cannula is connected to a pressure cell and enables the tracheal pressure to be recorded.
The guinea pigs are pretreated with d-tubocurarine (1 mg/kg i.v.) and with indomethacin (10 mg/kg i.v.). Injected at a dose of 2 μg/kg i.v., U46619 produces a bronchoconstriction which leads to an increase in tracheal pressure and induces an increase in arterial blood pressure. The responses to U46619 are reversible and reproducible if the injections are carried out every 10 minutes.
The thromboxane receptor antagonists are injected 5 minutes before the injections of U46619. The dose of antagonist that inhibits by 50% the increase in tracheal pressure caused by U46619 is determined (IC50).

thromboxane synthase = biological target: T2, thromboxane synthase (Oryctolagus cuniculus, UniProt G1TAZ9); assay: Anti-thromboxane synthase activity (TXB2 levels in serum of rabbit blood, radio immunoassay); format: cell-based; conditions: 37° C., one hour, serum TXB2 by radio immunoassay, read-out: IC50, inhibition of TXB2 level
T2 construct: from tissue; host or cells: rabbit whole blood (clotting; by own knowledge the enzyme is chiefly that of platelets)
T2 sequence (G1TAZ9 1-530): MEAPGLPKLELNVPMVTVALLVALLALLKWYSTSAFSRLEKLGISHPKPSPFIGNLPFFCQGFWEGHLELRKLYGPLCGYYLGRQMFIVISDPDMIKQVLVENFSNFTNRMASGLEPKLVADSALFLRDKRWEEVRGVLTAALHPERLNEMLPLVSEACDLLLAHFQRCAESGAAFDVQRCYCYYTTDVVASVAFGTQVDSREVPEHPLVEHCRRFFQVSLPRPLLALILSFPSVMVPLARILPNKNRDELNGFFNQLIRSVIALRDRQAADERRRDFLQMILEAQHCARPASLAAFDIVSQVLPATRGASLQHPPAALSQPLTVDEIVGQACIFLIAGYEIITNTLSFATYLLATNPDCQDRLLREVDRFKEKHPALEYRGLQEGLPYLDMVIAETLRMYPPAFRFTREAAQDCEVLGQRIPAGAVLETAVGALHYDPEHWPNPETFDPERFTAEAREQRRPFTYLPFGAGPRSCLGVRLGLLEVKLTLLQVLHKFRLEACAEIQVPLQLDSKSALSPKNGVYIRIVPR
Protocol: Anti-thromboxane synthase activity
Albino New Zealand rabbits weighing approximately 2 kg are used. These rabbits are anesthetized with pentobarbital (30 mg/kg i.v.). Blood is collected via carotid catheter in dry glass tubes, in the proportion of 1 ml per tube, in the presence or absence of different concentrations of inhibitor. The inhibitors are diluted in physiological fluid in order to avoid possible hemolysis.
The tubes are placed in a water bath at 37° C. for one hour. After coagulation, the tubes are cooled to 4° C. and centrifuged at 2000 g for 20 minutes in order to separate the serum from the clot. The serum may be frozen at -20° C. for 2 weeks for a subsequent assay.
The levels of TXB2, the stable metabolite of TXA2, in the serum are determined by radio immunoassay.
The levels obtained in the presence of the different doses of inhibitor are converted to a percentage inhibition relative to the baseline level of TXB2, in order to calculate the IC50 of the inhibitor. The latter is obtained by non-linear regression using the following equation (Michaelis L, Menten ML, Die Kinetik der Invertinwirkung, Biochem. Zeitschrifft, 1913, 49, 333-369):
I=(Imax * C^n) / (IC^n +C^n)
C=inhibitor concentration

SMILES | IC50 [1] [µM] | Kb (guinea pig trachea) [µM] | IC50 (thromboxane synthase) [µM] | IC50, dose of antagonist that inhibits by 50% the increase in tracheal pressure caused by U46619 [2] [mg/kg] | ED50 [2] [mg/kg]
O=C(O)CC/C=C\C[C@@H]1CCN(Cc2cccnc2)[C@@H]1c1cccc(O)c1 (relative stereo) [Example 26, (4Z)-6-{(2α,3α)-1-[(3-Pyridyl)methyl]-2-(3-hydroxyphenyl) -3-pyrrolidinyl}-4-hexenoic acid sodium salt] |  | 0.0309 |  |  | 0.03
COc1cccc([C@@H]2[C@H](C/C=C\CCC(=O)O)CCN2S(=O)(=O)c2ccc(F)cc2)c1 (relative stereo) [Example 1, (4Z)-6-[(2α,3α)-1-(4-Fluorophenylsulfonyl)-2-(3-methoxyphenyl)-3-pyrrolidinyl]-4-hexenoic acid sodium salt] |  | 0.0631 |  |  | 
O=C(O)CCCCC[C@@H]1CCN(S(=O)(=O)c2ccc(F)cc2)[C@@H]1c1cccnc1 (relative stereo) [Example 20, 6-[(2α,3α)-1-(4-Fluorophenylsulfonyl)-2-(3-pyridyl)-3-pyrrolidinyl) hexanoic acid sodium salt] |  |  | 60 |  | 
O=C(O)CC/C=C\C[C@@H]1CCN(S(=O)(=O)c2ccc(F)cc2)[C@@H]1c1cccnc1 (relative stereo) [Example 2, (4Z)-6-[(2α,3α)-1-(4-Fluorophenylsulfonyl)-2-(3-pyridyl)-3-pyrrolidinyl]-4-hexenoic acid sodium salt] |  |  | 200 |  | 

Continued, in another order:

IC50 [1] [µM] | Kb (guinea pig trachea) [µM] | IC50 (thromboxane synthase) [µM] | IC50, dose of antagonist that inhibits by 50% the increase in tracheal pressure caused by U46619 [2] [mg/kg] | SMILES | ED50 [2] [mg/kg]
20 | 0.0398 |  |  | O=C(O)CCC/C=C\C[C@@H]1CCN(S(=O)(=O)c2ccc(F)cc2)[C@@H]1c1cccc(O)c1 (relative stereo) [Example 15, (5Z)-7-[(2α,3α)-1-(4-Fluorophenylsulfonyl)-2-(3-hydroxyphenyl)-3-pyrrolidinyl]-5-heptenoic acid sodium salt] | 0.16
20 | 0.01 |  |  | O=C(O)CC/C=C\C[C@@H]1CCN(S(=O)(=O)c2ccc(F)cc2)[C@@H]1c1cccc(O)c1 (relative stereo) [Example 14, (4Z)-6-[(2α,3α)-1-(4-Fluorophenylsulfonyl)-2-(3-hydroxyphenyl)-3-pyrrolidinyl]-4-hexenoic acid sodium salt] | 0.07
 | 7.08 |  |  | O=C(O)CCCCC[C@@H]1CCN(Cc2cccnc2)[C@@H]1c1ccccc1 (relative stereo) [Example 22, 6-{(2α,3α)-1-[(3-Pyridyl)methyl]-2-phenyl-3-pyrrolidinyl}hexanoic acid sodium salt] | 
 | 0.00182 | 8.5 |  | O=C(O)CC/C=C\C[C@@H]1CCN(Cc2cccnc2)[C@@H]1c1ccccc1 (relative stereo) [Example 21, (4Z)-6-{(2α,3α)-1-[(3-Pyridyl)methyl]-2-phenyl-3-pyrrolidinyl}-4-hexenoic acid sodium salt] | 0.17
 |  |  | 0.7 | O=C([O-])CC/C=C\C[C@@H]1CCN(S(=O)(=O)c2ccc(F)cc2)[C@H]1c1ccccc1.[Na+] [Example 4, (4Z)-6-[(2α,3α)-1-(4-Fluorophenylsulfonyl)-2-phenyl-3-pyrrolidinyl]-4-hexenoic acid sodium salt] | 
